Consider 1 molecule from patent US20060069132A1, “Azolecarboxamide herbicides” (priority 2004, published 2006).

Molecules are shown by their SMILES.

The assay has as its system bipinnate beggarticks. Put plainly: Test E pre-/postemergence herbicide test. It counts as in vivo, Bidens bipinnata. The following applies: Preemergence. The procedure, abridged:
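Visual 0–100 rating vs untreated controls (0 = no effect, 100 = complete control), 12–14 d after treatment in greenhouse. Pre- and postemergence (2–18 cm, 1- to 4-leaf) applications; compounds in non-phytotoxic solvent with surfactant.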

Consider `Cc1nn(C(C)(C)C)nc1C(=O)Nc1cccc(C(=O)N(C)C)c1` [Compound 391], for which the “Plant response rating, Beggarticks, Bip.” value reads like this: (62 g ai/ha, scale 0 to 100) 40; (125 g ai/ha, scale 0 to 100) 80; (250 g ai/ha, scale 0 (no effect) to 100 (complete control)) 100; (500 g ai/ha, scale 0 (no effect) to 100 (complete control)) 100.
